Holding throughout (assay type): cell-based
For experiment [1], the target named is T1, 320 non-olfactory GPCRs (Homo sapiens, UniProt O00574).
T1 construct: expressed in transfected cells; host or cells: HTLA cells

Experiment [2] has as its target T2, 320 non-olfactory GPCRs (Homo sapiens, UniProt P28336).
T2 construct: expressed in transfected cells; host or cells: HTLA cells
Conditions: receptor NMBR; replicate values, Fig_4g.

Experiment [3] deals with T3, 320 non-olfactory GPCRs (Homo sapiens, UniProt Q15391).
T3 construct: expressed in transfected cells; host or cells: HTLA cells
Particulars: receptor P2RY14; replicate values, Fig_4g.

Experiment [4] has as its target 320 non-olfactory GPCRs (Homo sapiens, UniProt P08172).

Where “and” joins values, the source holds several entries; their conditions need not be identical. Identical values can stand only once.
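Throughout, for Fold of Basal: compound tested at 1 µM final concentration.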
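Throughout, for GPCRome agonism screen response: fold over basal response of each receptor without drug.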

T1 sequence (O00574 whole entry): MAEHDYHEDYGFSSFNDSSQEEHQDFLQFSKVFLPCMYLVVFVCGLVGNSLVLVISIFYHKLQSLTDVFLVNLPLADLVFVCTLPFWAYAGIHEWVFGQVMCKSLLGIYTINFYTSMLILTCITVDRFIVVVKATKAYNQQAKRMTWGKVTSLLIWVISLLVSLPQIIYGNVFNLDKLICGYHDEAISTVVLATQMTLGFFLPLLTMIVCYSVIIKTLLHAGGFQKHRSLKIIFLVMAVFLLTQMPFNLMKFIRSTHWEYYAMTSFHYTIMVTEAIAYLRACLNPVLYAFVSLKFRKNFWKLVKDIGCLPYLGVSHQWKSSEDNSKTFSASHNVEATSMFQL
T2 sequence (P28336 whole entry): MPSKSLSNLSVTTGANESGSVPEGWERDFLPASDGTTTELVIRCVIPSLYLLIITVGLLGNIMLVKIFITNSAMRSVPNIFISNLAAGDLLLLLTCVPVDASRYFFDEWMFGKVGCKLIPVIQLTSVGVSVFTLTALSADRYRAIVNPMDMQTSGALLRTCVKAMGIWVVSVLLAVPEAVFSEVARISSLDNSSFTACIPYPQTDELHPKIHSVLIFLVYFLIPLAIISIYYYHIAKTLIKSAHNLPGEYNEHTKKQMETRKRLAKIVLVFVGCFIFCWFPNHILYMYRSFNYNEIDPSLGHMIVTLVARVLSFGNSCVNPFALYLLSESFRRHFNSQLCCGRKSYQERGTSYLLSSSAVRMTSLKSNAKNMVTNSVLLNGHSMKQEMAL
Chain of 320 non-olfactory GPCRs (Homo sapiens, UniProt P08172) (P08172 whole entry): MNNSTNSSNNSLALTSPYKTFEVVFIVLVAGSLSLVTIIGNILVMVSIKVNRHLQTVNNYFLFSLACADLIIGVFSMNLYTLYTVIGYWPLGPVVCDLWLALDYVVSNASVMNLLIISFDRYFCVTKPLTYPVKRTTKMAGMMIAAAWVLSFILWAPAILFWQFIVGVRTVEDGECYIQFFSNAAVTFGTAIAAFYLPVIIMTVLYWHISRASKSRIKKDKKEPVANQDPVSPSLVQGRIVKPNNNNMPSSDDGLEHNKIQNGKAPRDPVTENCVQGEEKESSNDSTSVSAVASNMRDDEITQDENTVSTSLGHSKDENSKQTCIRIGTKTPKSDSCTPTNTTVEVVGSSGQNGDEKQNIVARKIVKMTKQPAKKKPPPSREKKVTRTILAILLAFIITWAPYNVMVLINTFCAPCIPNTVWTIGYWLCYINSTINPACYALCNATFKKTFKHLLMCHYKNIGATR
T3 sequence (Q15391 whole entry): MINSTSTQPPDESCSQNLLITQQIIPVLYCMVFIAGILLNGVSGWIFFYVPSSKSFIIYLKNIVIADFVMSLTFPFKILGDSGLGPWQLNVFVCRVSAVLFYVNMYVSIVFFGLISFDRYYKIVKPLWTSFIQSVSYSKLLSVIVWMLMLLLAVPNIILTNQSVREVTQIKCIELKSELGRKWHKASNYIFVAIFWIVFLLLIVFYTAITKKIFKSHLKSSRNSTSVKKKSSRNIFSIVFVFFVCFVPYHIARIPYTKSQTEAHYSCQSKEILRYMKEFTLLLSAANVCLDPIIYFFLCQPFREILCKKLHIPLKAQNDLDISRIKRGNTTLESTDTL

For the compound `CCOc1cccc2cc(C(C)NCC3(O)CCCCC3)oc12` (stereo not shown) [O4LE6], the “Fold of Basal” value on 320 non-olfactory GPCRs [1] was 0.9849 and 0.6404 and 1.204 and 0.796; at 320 non-olfactory GPCRs [4], 1.524 and 1.414 and 0.8585 and 0.8596. Also, the “GPCRome agonism screen response” value on 320 non-olfactory GPCRs [2] is 0.2359 and 0.9261 and 0.9727 and 0.7093; on 320 non-olfactory GPCRs [3] it was 0.8976 and 0.7161 and 0.7434 and 0.9997.
